Test results as given in ChEMBL document CHEMBL3046521, “Synthesis and antitumor activity of (4-hydroxyphenyl)[5-substituted alkyl/aryl)-2-thioxo-1,3,4-thiadiazol-3-yl]methanone and [(3,4-disubstituted)-1,3-thiazol-2ylidene]-4-hydroxybenzohydrazide” (2011).

Legend:
Assay type in all cases: functional
[1] = tested on: A549; assay: Cytotoxicity against Homo sapiens (human) A549 cells after 48 hr by sulforhodamine B assay; settings: A549, 48 h
[2] = tested on: SF-295; assay: Cytotoxicity against Homo sapiens (human) SF295 cells after 48 hr by sulforhodamine B assay; settings: SF-295, 48 h
[3] = tested on: NCI-H23; assay: Cytotoxicity against Homo sapiens (human) NCI-H23 cells after 48 hr by sulforhodamine B assay; settings: NCI-H23, 48 h
[4] = Cytotoxicity against Homo sapiens (human) NCI-ADR-RES cells after 48 hr by sulforhodamine B assay
[5] = tested on: HCT-116; assay: Cytotoxicity against Homo sapiens (human) HCT116 cells after 48 hr by sulforhodamine B assay; settings: HCT-116, 48 h
[6] = tested on: MDA-MB-468; assay: Cytotoxicity against Homo sapiens (human) MDA-MB-468 cells after 48 hr by sulforhodamine B assay; settings: MDA-MB-468, 48 h
[7] = tested on: TK-10; assay: Cytotoxicity against Homo sapiens (human) TK10 cells after 48 hr by sulforhodamine B assay; settings: TK-10, 48 h
[8] = tested on: MDA-MB-231; assay: Cytotoxicity against Homo sapiens (human) MDA-MB-231 cells after 48 hr by sulforhodamine B assay; settings: MDA-MB-231, 48 h
[9] = tested on: HOP-92; assay: Cytotoxicity against Homo sapiens (human) HOP92 cells after 48 hr by sulforhodamine B assay; settings: HOP-92, 48 h
[10] = tested on: ACHN; assay: Cytotoxicity against Homo sapiens (human) ACHN cells after 48 hr by sulforhodamine B assay
[11] = tested on: T47D; assay: Cytotoxicity against Homo sapiens (human) T47D cells after 48 hr by sulforhodamine B assay
[12] = tested on: BT-549; assay: Cytotoxicity against Homo sapiens (human) BT549 cells after 48 hr by sulforhodamine B assay; settings: BT-549, 48 h
[13] = tested on: NCI-H522; assay: Cytotoxicity against Homo sapiens (human) NCI-H522 cells after 48 hr by sulforhodamine B assay; settings: NCI-H522, 48 h
[14] = tested on: MOLT-4; assay: Cytotoxicity against Homo sapiens (human) MOLT4 cells after 48 hr by sulforhodamine B assay; settings: MOLT-4, 48 h
[15] = tested on: HT-29; assay: Cytotoxicity against Homo sapiens (human) HT-29 cells after 48 hr by sulforhodamine B assay; settings: HT-29, 48 h
[16] = tested on: LOX IMVI; assay: Cytotoxicity against Homo sapiens (human) LOXIMVI cells after 48 hr by sulforhodamine B assay
[17] = tested on: SW-620; assay: Cytotoxicity against Homo sapiens (human) SW620 cells after 48 hr by sulforhodamine B assay; settings: SW-620, 48 h
[18] = tested on: SN12C; assay: Cytotoxicity against Homo sapiens (human) SN12C cells after 48 hr by sulforhodamine B assay
[19] = tested on: RXF 393; assay: Cytotoxicity against Homo sapiens (human) RXF393 cells after 48 hr by sulforhodamine B assay; settings: RXF 393, 48 h
[20] = tested on: OVCAR-5; assay: Cytotoxicity against Homo sapiens (human) OVCAR5 cells after 48 hr by sulforhodamine B assay; settings: OVCAR-5, 48 h
[21] = tested on: LOX IMVI; assay: Anticancer activity in Homo sapiens (human) LOXIMVI cells assessed as cell growth at 10^-5 M after 48 hr by SRB assay; settings: read-out: Activity
[22] = tested on: SK-MEL-5; assay: Cytotoxicity against Homo sapiens (human) SK-MEL-5 cells after 48 hr by sulforhodamine B assay; settings: SK-MEL-5, 48 h
[23] = tested on: NCI-H460; assay: Cytotoxicity against Homo sapiens (human) NCI-H460 cells after 48 hr by sulforhodamine B assay; settings: NCI-H460, 48 h
[24] = tested on: MDA-MB-435; assay: Cytotoxicity against Homo sapiens (human) MDA-MB-435 cells after 48 hr by sulforhodamine B assay; settings: MDA-MB-435, 48 h
[25] = tested on: CCRF-CEM; assay: Cytotoxicity against Homo sapiens (human) CCRF-CEM cells after 48 hr by sulforhodamine B assay
[26] = tested on: MCF7; assay: Cytotoxicity against Homo sapiens (human) MCF7 cells after 48 hr by sulforhodamine B assay; settings: MCF7, 48 h
[27] = tested on: 786-0; assay: Cytotoxicity against Homo sapiens (human) 786-0 cells after 48 hr by sulforhodamine B assay; settings: 786-0, 48 h
[28] = tested on: OVCAR-3; assay: Cytotoxicity against Homo sapiens (human) OVCAR3 cells after 48 hr by sulforhodamine B assay; settings: OVCAR-3, 48 h
[29] = tested on: UACC-62; assay: Cytotoxicity against Homo sapiens (human) UACC62 cells after 48 hr by sulforhodamine B assay; settings: UACC-62, 48 h

## COc1ccc(-c2cs/c(=N\NC(=O)c3ccc(O)cc3)n2-c2ccc(OC)cc2OC)cc1
[1]
  GI50: 6.03 µM
  LC50: > 100 µM
[1]; read-out: pTGI (converted)
  TGI: > 100 µM
[2]
  GI50: 2.82 µM
  LC50: > 100 µM
[2]; read-out: pTGI (converted)
  TGI: 9.77 µM
[3]
  GI50: 11 µM
  LC50: > 100 µM
[3]; read-out: pTGI (converted)
  TGI: > 100 µM
[4]
  GI50: 2.95 µM
  LC50: > 100 µM
[4]; read-out: pTGI (converted)
  TGI: 8.32 µM
[5]
  GI50: 5.13 µM
  LC50: > 100 µM
[5]; read-out: pTGI (converted)
  TGI: 28.2 µM
[6]
  GI50: 3.89 µM
  LC50: > 100 µM
[6]; read-out: pTGI (converted)
  TGI: > 100 µM
[7]
  GI50: 13.5 µM
  LC50: > 100 µM
[7]; read-out: pTGI (converted)
  TGI: 75.9 µM
[8]
  GI50: 3.16 µM
  LC50: > 100 µM
[8]; read-out: pTGI (converted)
  TGI: 20 µM
[9]
  GI50: 3.31 µM
  LC50: > 100 µM
[9]; read-out: pTGI (converted)
  TGI: 37.2 µM
[10]
  GI50: 4.79 µM
  LC50: > 100 µM
[10]; read-out: pTGI (converted)
  TGI: > 100 µM
[11]
  GI50: 5.13 µM
  LC50: > 100 µM
[11]; read-out: pTGI (converted)
  TGI: 79.4 µM
[12]
  GI50: 14.1 µM
  LC50: > 100 µM
[12]; read-out: pTGI (converted)
  TGI: 69.2 µM
[13]
  GI50: 2.57 µM
  LC50: > 100 µM
[13]; read-out: pTGI (converted)
  TGI: 20 µM
[14]
  GI50: 1.2 µM
  LC50: > 100 µM
[14]; read-out: pTGI (converted)
  TGI: 23.4 µM
[15]
  GI50: 3.63 µM
  LC50: > 100 µM
[15]; read-out: pTGI (converted)
  TGI: 17 µM
[16]
  GI50: 3.8 µM
  LC50: 85.1 µM
[16]; read-out: pTGI (converted)
  TGI: 15.8 µM
[17]
  GI50: 4.37 µM
  LC50: > 100 µM
[17]; read-out: pTGI (converted)
  TGI: 43.7 µM
[18]
  GI50: 6.61 µM
  LC50: > 100 µM
[18]; read-out: pTGI (converted)
  TGI: 57.5 µM
[19]
  GI50: 5.37 µM
  LC50: > 100 µM
[19]; read-out: pTGI (converted)
  TGI: > 100 µM
[20]
  GI50: 6.92 µM
  LC50: > 100 µM
[20]; read-out: pTGI (converted)
  TGI: 38 µM
[21]
  growth at 10 µM: 58.3%
[22]
  GI50: 5.37 µM
  LC50: 52.5 µM
[22]; read-out: pTGI (converted)
  TGI: 19.5 µM
[23]
  GI50: 3.02 µM
  LC50: > 100 µM
[23]; read-out: pTGI (converted)
  TGI: 13.5 µM
[24]
  GI50: 2.88 µM
  LC50: > 100 µM
[24]; read-out: pTGI (converted)
  TGI: 22.9 µM
[25]
  GI50: 9.77 µM
  LC50: > 100 µM
[25]; read-out: pTGI
  TGI: > 100 µM
[26]
  GI50: 3.72 µM
  LC50: > 100 µM
[26]; read-out: pTGI (converted)
  TGI: 28.8 µM
[27]
  GI50: 4.07 µM
  LC50: > 100 µM
[27]; read-out: pTGI (converted)
  TGI: 26.3 µM
[28]
  GI50: 3.8 µM
  LC50: 95.5 µM
[28]; read-out: pTGI (converted)
  TGI: 17 µM
[29]
  GI50: 4.47 µM
  LC50: 85.1 µM
[29]; read-out: pTGI (converted)
  TGI: 22.9 µM
